Data as given in PMC6345968, “Structural basis for species-selective targeting of Hsp90 in a pathogenic fungus” (Nature Communications, 2019).
“And” between values parts separate entries of the source, which are not always exact repeats. Equal values may be shown once. Read-outs that look alike come from different tables or passages of the source.

Tests used:
C. albicans Hsp90 NBD = target: T1, C. albicans Hsp90 NBD (Candida albicans, UniProt P46598); experiment: biochemical; format: binding; settings: 0.1 nM Cy3-GdA, C. albicans NBD-Hsp90 (10 nM), Experiments 1-3
T1 construct: C. albicans Hsp90 (E7-K218); made in house; host or cells: E. coli Rosetta2

Hsp90 in 3T3 lysate = experiment: FP competition in whole-cell lysate; format: binding, mouse; settings: 3T3 lysate
Experimental: After vortexing, cell lysate was frozen at −80 °C for 2 h, followed by thawing on ice. The vortex-freeze-thaw step was repeated. […] Aliquots were thawed immediately prior to use.

Hsp90 in HEPG2 lysate = settings: for FP signal / FP signal (raw): HepG2 lysate; for FP signal: raw
[1] = target: T2, Hsp90 in C. albicans (SC5314) lysate (Candida albicans, UniProt P46598); experiment: biochemical; format: binding; settings: for FP signal: raw
T2 construct: endogenous in cells; host or cells: C. albicans SC5314 whole-cell lysate

[2] = read-out: FP signal, fraction of control

T1 sequence (P46598 7-218): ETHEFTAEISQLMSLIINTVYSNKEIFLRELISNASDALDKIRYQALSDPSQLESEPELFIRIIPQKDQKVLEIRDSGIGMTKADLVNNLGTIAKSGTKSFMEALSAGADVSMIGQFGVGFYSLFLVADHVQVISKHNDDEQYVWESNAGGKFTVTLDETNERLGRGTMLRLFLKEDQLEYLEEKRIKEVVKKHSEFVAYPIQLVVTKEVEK
T2 sequence (P46598 whole entry): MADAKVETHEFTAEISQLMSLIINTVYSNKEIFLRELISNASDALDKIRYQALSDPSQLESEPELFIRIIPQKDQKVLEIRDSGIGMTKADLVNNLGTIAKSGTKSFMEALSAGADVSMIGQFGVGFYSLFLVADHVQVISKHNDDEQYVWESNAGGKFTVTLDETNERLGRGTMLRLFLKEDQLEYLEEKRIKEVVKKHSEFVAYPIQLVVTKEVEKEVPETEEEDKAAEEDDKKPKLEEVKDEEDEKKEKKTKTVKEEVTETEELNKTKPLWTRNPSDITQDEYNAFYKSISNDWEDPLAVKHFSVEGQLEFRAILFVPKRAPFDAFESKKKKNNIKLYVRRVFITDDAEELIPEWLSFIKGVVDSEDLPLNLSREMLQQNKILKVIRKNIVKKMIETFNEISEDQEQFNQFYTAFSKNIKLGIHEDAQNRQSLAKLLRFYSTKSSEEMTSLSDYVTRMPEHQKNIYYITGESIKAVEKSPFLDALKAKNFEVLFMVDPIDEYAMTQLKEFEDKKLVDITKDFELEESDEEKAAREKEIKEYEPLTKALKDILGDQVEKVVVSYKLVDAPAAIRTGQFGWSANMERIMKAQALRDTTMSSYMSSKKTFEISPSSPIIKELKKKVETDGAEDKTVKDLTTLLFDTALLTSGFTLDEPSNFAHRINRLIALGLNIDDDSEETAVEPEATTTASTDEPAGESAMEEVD

COC1=C2C[C@@H](C)C[C@H](OC)[C@H](O)[C@@H](C)/C=C(\C)[C@H](OC(N)=O)[C@@H](OC)/C=C\C=C(/C)C(=O)NC(=CC1=O)C2=O [geldanamycin, reference compound]
FP signal (raw) (C. albicans Hsp90 NBD; Cmpd 0.002 uM): 98 | remaining activity at 0.002 µM (C. albicans Hsp90 NBD; Cmpd 0.002 uM, read-out: FP signal as fraction of no-compound (0 uM) control): 98% | FP signal (raw) (C. albicans Hsp90 NBD; Cmpd 0.004 uM): 97 | remaining activity at 0.004 µM (C. albicans Hsp90 NBD; Cmpd 0.004 uM, read-out: FP signal as fraction of no-compound (0 uM) control): 95.5% | FP signal (raw) (C. albicans Hsp90 NBD; Cmpd 0.008 uM): 92 | remaining activity at 0.008 µM (C. albicans Hsp90 NBD; Cmpd 0.008 uM, read-out: FP signal as fraction of no-compound (0 uM) control): 94.4% | remaining activity at 0.016 µM (C. albicans Hsp90 NBD; Cmpd 0.016 uM, read-out: FP signal as fraction of no-compound (0 uM) control): 87% | remaining activity at 0.25 µM (C. albicans Hsp90 NBD; Cmpd 0.25 uM, read-out: FP signal as fraction of no-compound (0 uM) control): 18.6% | FP signal (raw) (C. albicans Hsp90 NBD; Cmpd 0.5 uM): 18 and 19 and 10 | remaining activity at 0.5 µM (C. albicans Hsp90 NBD; Cmpd 0.5 uM, read-out: FP signal as fraction of no-compound (0 uM) control): 10.2% | remaining activity at […] (C. albicans Hsp90 NBD; Cmpd […], read-out: FP signal as fraction of no-compound (0 uM) control): 71.3% | FP signal (raw) (Hsp90 in 3T3 lysate; 0.002 uM): 254 | FP signal (raw) (Hsp90 in 3T3 lysate; 0.004 uM): 250 | FP signal (raw) (Hsp90 in 3T3 lysate; 0.008 uM): 250 | FP signal (raw) (Hsp90 in 3T3 lysate; 0.016 uM): 252 | FP signal (raw) (Hsp90 in 3T3 lysate; 0.063 uM): 213 | FP signal (raw) (Hsp90 in 3T3 lysate; 0.25 uM): 76 | FP signal (raw) (Hsp90 in 3T3 lysate; 0.5 uM): 34 | FP signal (raw) (Hsp90 in 3T3 lysate; 1 uM): 23 | Rel. to GdA (Hsp90 in HEPG2 lysate; EC50 relative to GdA, HEPG2 lysate): 1 | FP signal (Hsp90 in HEPG2 lysate; 37.037 nM compound): 93 | FP signal (raw) (Hsp90 in HEPG2 lysate; 37.037 nM, listed as GdA): 93 | FP signal (Hsp90 in HEPG2 lysate; 111.111 nM compound): 59 | FP signal (raw) (Hsp90 in HEPG2 lysate; 111.111 nM, listed as GdA): 59 and 55 | FP signal (raw) (Hsp90 in HEPG2 lysate; 0.25 uM): 27 | FP signal (Hsp90 in HEPG2 lysate; 333.333 nM compound): 40 | FP signal (raw) (Hsp90 in HEPG2 lysate; 333.333 nM, listed as GdA): 40 and 41 | FP signal (raw) (Hsp90 in HEPG2 lysate; 0.5 uM): 9 | FP signal (raw) (Hsp90 in HEPG2 lysate; 1 uM): 5 | FP signal (Hsp90 in HEPG2 lysate; 1000 nM compound): 35 | FP signal (raw) (Hsp90 in HEPG2 lysate; 1000 nM, listed as GdA): 35 and 32 | FP signal (raw) (Hsp90 in HEPG2 lysate; 2 uM): -5 | FP signal (Hsp90 in HEPG2 lysate; 3000 nM compound): 30 | FP signal (raw) (Hsp90 in HEPG2 lysate; 3000 nM, listed as GdA): 30 and 27 | Rel. to GdA ([1]; EC50 relative to GdA, SC5314 lysate): 1 | FP signal ([1]; SC5314 lysate, 0.457 nM compound): 205 | FP signal (raw) ([1]; SC5314 lysate, 0.457 nM, listed as GdA): 205 | FP signal ([1]; SC5314 lysate, 1.372 nM compound): 198 | FP signal (raw) ([1]; SC5314 lysate, 1.372 nM, listed as GdA): 198 and 206 | remaining activity at 0.002 µM ([1]; SC5314 lysate, 0.002 uM, read-out: FP signal, fraction of control): 96.8% | remaining activity at 0.004 µM ([1]; SC5314 lysate, 0.004 uM, read-out: FP signal, fraction of control): 95.7% | remaining activity at […] ([1]; SC5314 lysate, 0.031 uM, read-out: FP signal, fraction of control): 59.4% | FP signal ([1]; SC5314 lysate, 37.037 nM compound): 78 | FP signal (raw) ([1]; SC5314 lysate, 37.037 nM, listed as GdA): 78 and 81 | FP signal (raw) ([1]; SC5314 lysate, 0.063 uM): 48 | remaining activity at 0.063 µM ([1]; SC5314 lysate, 0.063 uM, read-out: FP signal, fraction of control): 25.7% | FP signal ([1]; SC5314 lysate, 111.111 nM compound): 47 | FP signal (raw) ([1]; SC5314 lysate, 111.111 nM, listed as GdA): 47 and 43 | FP signal (raw) ([1]; SC5314 lysate, 0.25 uM): 2 | remaining activity at 0.25 µM ([1]; SC5314 lysate, 0.25 uM, read-out: FP signal, fraction of control): 1.07% | FP signal (raw) ([1]; SC5314 lysate, 333.333 nM): 33 | FP signal ([1]; SC5314 lysate, 333.333 nM compound): 33 | FP signal (raw) ([1]; SC5314 lysate, 0.5 uM): -7 | remaining activity at 0.5 µM ([1]; SC5314 lysate, 0.5 uM, read-out: FP signal, fraction of control): -3.74% | FP signal (raw) ([1]; SC5314 lysate, 1 uM): -4 | FP signal (raw) ([1]; SC5314 lysate, 1000 nM): 30 | FP signal ([1]; SC5314 lysate, 1000 nM compound): 30 | FP signal (raw) ([1]; SC5314 lysate, 2 uM): -6 | remaining activity at 2 µM ([1]; SC5314 lysate, 2 uM, read-out: FP signal, fraction of control): -3.21% | FP signal ([1]; SC5314 lysate, 3000 nM compound): 30 | FP signal (raw) ([1]; SC5314 lysate, 3000 nM, listed as GdA): 30 and 28 | remaining activity at 0.008 µM [1, 2]: 91.4% | remaining activity at 0.016 µM [1, 2]: 79.1% | remaining activity at 1 µM [1, 2]: -2.14%
